# According to PubChem BioAssay AID2060901 (Molecular Pharmacology Branch, DTP, NCI, 2025):
# System: 422866-222-R5-J1-PDC complex spheroids viability
# Experiment: Anticancer human tumor 422866-222-R5-J1-PDC patient-derived pancreatic adenocarcinoma cell line growth inhibition [RAS]
# Conditions: for viability, T/C: stronger effect = lower value
# Summary of the method: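 Tumour cells grown as complex spheroids with HUVEC endothelial cells and mesenchymal stem cells, treated with RAS pathway inhibitor combinations. Each agent spans half-log steps from near clinical Cmax, or 10 microM where Cmax is unknown.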
# [1] = curve of first compound, second compound 0.0316 µM
# [2] = curve of first compound, second compound 0.1 µM
# [3] = curve of first compound, second compound 0.316 µM
# [4] = curve of first compound, second compound 1 µM
# [5] = second compound 0.0316 µM, first compound 0.0316 µM
# [6] = second compound 0.0316 µM, first compound 0.1 µM
# [7] = second compound 0.0316 µM, first compound 0.316 µM
# [8] = second compound 0.0316 µM, first compound 1 µM
# [9] = second compound 0.0316 µM, first compound 3.16 µM
# [10] = second compound 0.0316 µM, first compound 10 µM
# [11] = second compound 0.1 µM, first compound 0.0316 µM
# [12] = second compound 0.1 µM, first compound 0.1 µM
# [13] = second compound 0.1 µM, first compound 0.316 µM
# [14] = second compound 0.1 µM, first compound 1 µM
# [15] = second compound 0.1 µM, first compound 3.16 µM
# [16] = second compound 0.1 µM, first compound 10 µM
# [17] = second compound 0.316 µM, first compound 0.0316 µM
# [18] = second compound 0.316 µM, first compound 0.1 µM
# [19] = second compound 0.316 µM, first compound 0.316 µM
# [20] = second compound 0.316 µM, first compound 1 µM
# [21] = second compound 0.316 µM, first compound 3.16 µM
# [22] = second compound 0.316 µM, first compound 10 µM
# [23] = second compound 1 µM, first compound 0.0316 µM
# [24] = second compound 1 µM, first compound 0.1 µM
# [25] = second compound 1 µM, first compound 0.316 µM
# [26] = second compound 1 µM, first compound 1 µM
# [27] = second compound 1 µM, first compound 3.16 µM
# [28] = second compound 1 µM, first compound 10 µM
# 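Further: spheroids exposed to compounds for 7 days.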
# 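Wherever viability, T/C is given: 100% = DMSO vehicle control viability.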
structure (smiles),measurement,setting,value
NC1c2ccccc2OC12CCN(c1cnc3c(N4CCCc5ncccc54)n[nH]c3n1)CC2 (stereo unspecified) + C=CC(=O)N1CCN(c2nc(OCC3CCCN3C)nc3c(F)c(-c4nc(N)cc(C)c4C(F)(F)F)c(Cl)cc23)C(C)C1,IC50,"curve of first compound, second compound 0.00316 µM",< 31.6 nM
same,IC50,"curve of first compound, second compound 0.01 µM",< 31.6 nM
same,IC50,[1],< 31.6 nM
same,IC50,[2],< 31.6 nM
same,IC50,[3],< 31.6 nM
same,IC50,[4],< 31.6 nM
same,"viability, T/C","second compound 0.00316 µM, first compound 0.0316 µM",21.3%
same,"viability, T/C","second compound 0.00316 µM, first compound 0.1 µM",17.9%
same,"viability, T/C","second compound 0.00316 µM, first compound 0.316 µM",18.1%
same,"viability, T/C","second compound 0.00316 µM, first compound 1 µM",16.3%
same,"viability, T/C","second compound 0.00316 µM, first compound 3.16 µM",13.4%
same,"viability, T/C","second compound 0.00316 µM, first compound 10 µM",16.3%
same,"viability, T/C","second compound 0.01 µM, first compound 0.0316 µM",20.1%
same,"viability, T/C","second compound 0.01 µM, first compound 0.1 µM",17.6%
same,"viability, T/C","second compound 0.01 µM, first compound 0.316 µM",13.2%
same,"viability, T/C","second compound 0.01 µM, first compound 1 µM",16.3%
same,"viability, T/C","second compound 0.01 µM, first compound 3.16 µM",15.4%
same,"viability, T/C","second compound 0.01 µM, first compound 10 µM",16.6%
same,"viability, T/C",[5],20.4%
same,"viability, T/C",[6],18.5%
same,"viability, T/C",[7],13.9%
same,"viability, T/C",[8],14.5%
same,"viability, T/C",[9],15.9%
same,"viability, T/C",[10],14.8%
same,"viability, T/C",[11],18.3%
same,"viability, T/C",[12],15.1%
same,"viability, T/C",[13],15.3%
same,"viability, T/C",[14],12.8%
same,"viability, T/C",[15],16.3%
same,"viability, T/C",[16],14.2%
same,"viability, T/C",[17],18.4%
same,"viability, T/C",[18],16.6%
same,"viability, T/C",[19],14.5%
same,"viability, T/C",[20],13.6%
same,"viability, T/C",[21],14.2%
same,"viability, T/C",[22],12.9%
same,"viability, T/C",[23],18.7%
same,"viability, T/C",[24],14.1%
same,"viability, T/C",[25],16.4%
same,"viability, T/C",[26],15.8%
same,"viability, T/C",[27],14.9%
same,"viability, T/C",[28],15.9%
CCn1c(-c2cc(N3CCN(C)CC3)cnc2C(C)OC)c2c3cc(ccc31)-c1csc(n1)CC(NC(=O)C1CC1C)C(=O)N1CCCC(N1)C(=O)OCC(C)(C)C2 (stereo unspecified),"viability, T/C",compound 0.000949 µM,29.7% [middle of 8 runs]
same,"viability, T/C",compound 0.003 µM,22.6% [middle of 8 runs]
same,"viability, T/C",compound 0.00949 µM,19.6% [middle of 8 runs]
same,"viability, T/C",compound 0.03 µM,20.2% [middle of 8 runs]
same,"viability, T/C",compound 0.0949 µM,23% [middle of 8 runs]
same,"viability, T/C",compound 0.3 µM,21.7% [middle of 8 runs]
same,IC50,"compound alone, run of 05/20/2024",< 0.949 nM
CC(C)NCC(C(=O)N1CCN(c2ncnc3c2C(C)CC3O)CC1)c1ccc(Cl)cc1 (stereo unspecified) + C#Cc1c(F)ccc2cc(O)cc(-c3ncc4c(N5CC6CCC(C5)N6)nc(OCC56CCCN5CC(F)C6)nc4c3F)c12,IC50,[1],> 10000 nM
same,IC50,[2],> 10000 nM
same,IC50,[3],> 10000 nM
same,IC50,[4],< 31.6 nM
same,IC50,"curve of first compound, second compound 3.16 µM",< 31.6 nM
same,IC50,"curve of first compound, second compound 10 µM",< 31.6 nM
same,"viability, T/C",[5],87.4%
same,"viability, T/C",[6],79%
same,"viability, T/C",[7],88%
same,"viability, T/C",[8],100%
same,"viability, T/C",[9],103%
same,"viability, T/C",[10],121%
same,"viability, T/C",[11],86.9%
same,"viability, T/C",[12],64.4%
same,"viability, T/C",[13],78.3%
same,"viability, T/C",[14],74.7%
same,"viability, T/C",[15],94.2%
same,"viability, T/C",[16],109%
same,"viability, T/C",[17],60.3%
same,"viability, T/C",[18],46.1%
same,"viability, T/C",[19],58.5%
same,"viability, T/C",[20],69.9%
same,"viability, T/C",[21],81.8%
same,"viability, T/C",[22],85.2%
same,"viability, T/C",[23],39.9%
same,"viability, T/C",[24],35.3%
same,"viability, T/C",[25],38.9%
same,"viability, T/C",[26],48.6%
same,"viability, T/C",[27],66.5%
same,"viability, T/C",[28],58.9%
same,"viability, T/C","second compound 3.16 µM, first compound 0.0316 µM",25.6%
same,"viability, T/C","second compound 3.16 µM, first compound 0.1 µM",24.3%
same,"viability, T/C","second compound 3.16 µM, first compound 0.316 µM",19.6%
same,"viability, T/C","second compound 3.16 µM, first compound 1 µM",29.4%
same,"viability, T/C","second compound 3.16 µM, first compound 3.16 µM",38.4%
same,"viability, T/C","second compound 3.16 µM, first compound 10 µM",40.9%
same,"viability, T/C","second compound 10 µM, first compound 0.0316 µM",17.3%
same,"viability, T/C","second compound 10 µM, first compound 0.1 µM",19%
same,"viability, T/C","second compound 10 µM, first compound 0.316 µM",14.6%
same,"viability, T/C","second compound 10 µM, first compound 1 µM",12%
same,"viability, T/C","second compound 10 µM, first compound 3.16 µM",18.8%
same,"viability, T/C","second compound 10 µM, first compound 10 µM",18.8%
